{
  "source": "paper PMC7403827",
  "about": "(Clinical and Translational Medicine, 2020)",
  "key": {"[1]": {"settings": "previously reported, cited from earlier work"}, "[2]": {"test_system": "EGFR‐mutant advanced non‐squamous NSCLC", "experiment": "Antitumor response (RECIST 1.1), PFS and OS", "settings": "for median PFS: Kaplan‐Meier", "from_the_text": "Other endpoints included objective response rate (ORR) and disease control rate (DCR), progression‐free survival (PFS), and overall survival (OS). […] Combination therapy was continued until the status of progression disease, unbearable toxicity, withdrawal of informed consent form or discontinuation that was at the discretion of the principal investigator (see Supporting Information).\nAdverse events (AEs) in line with the version 4.0 of National Cancer Institute's Common Terminology Criteria for Adverse Events (CTCAE 4.0) were evaluated by the investigators. AEs were strictly recorded from the timepoint that ICF was obtained to 28 days after the finish of study. Imaging examinations was conducted before treatment, at the finish of the first follow‐up, and every other two follow‐ups afterward by taking the same examinations. Response of tumor was assessed based on the RECIST 1.1 guidelines. Primary assessment for antitumor response: (a) ORR, defining as the proportion of participants that achieved a complete response (CR) or a partial response (PR); (b) disease control rate (DCR), defining as the proportion of participants reached a status of CR or PR or stable disease (SD). After 4 weeks, best overall response (BOR) was confirmed.\nPatients in the ITT analysis who had complete safety records were pooled in the safety set (SS). The qualitative and quantitative data were summarized with the descriptive statistics. Efficacy was also assessed in the ITT analysis. The Kaplan‐Meier method described PFS and OS. Survival distribution differences were evaluated by the log‐rank test. […] Fisher's exact test compared the response rate in the various subgroups. Two‐sided tests were applied. […] All statistical analyses and graphs were made by the Statistical Package for Social Sciences (SPSS) 23.0 and GraphPad Prism 7."}, "[3]": {"settings": "Apatinib 250mg, ref [1] Yu M et al., Clinical Pharmacokinetics 2017"}, "[4]": {"settings": "Apatinib 500mg, ref [2] Ding J et al., J Chromatogr B 2012"}, "[5]": {"settings": "Apatinib Dose Cohort 250mg + gefitinib 250 mg, evaluable patients"}, "[6]": {"settings": "Apatinib Dose Cohort 500mg + gefitinib 250 mg, evaluable patients"}, "[7]": {"settings": "Total, both apatinib dose cohorts (n = 11)"}},
  "note": "Read-outs that look alike come from different tables or passages of the source.",
  "data": [
    {"compound": "N#CC1(c2ccc(NC(=O)c3cccnc3NCc3ccncc3)cc2)CCCC1", "note": "[Apatinib]", "values": [
      {"measurement": "AUC0-24", "setting": "[1]; [3]", "value": "3538 (1996-6025) ng·h/ml"},
      {"measurement": "Cmax", "setting": "[1]; [3]", "value": "581 (321-1216) ng/ml"},
      {"measurement": "AUC0-24", "setting": "[1]; [4]", "value": "11295 (70) ng·h/ml"},
      {"measurement": "Cmax", "setting": "[1]; [4]", "value": "1521 (75) ng/ml"},
      {"measurement": "Tmax", "setting": "[1]; [4]", "value": "3.5 (3-8) h"},
      {"measurement": "CR, patients", "setting": "[2]; [5]", "value": 0},
      {"measurement": "Disease Control CR+PR+SD", "setting": "[2]; [5]", "value": "6 (100.0) n (%)"},
      {"measurement": "Objective Response CR+PR", "setting": "[2]; [5]", "value": "5 (83.3) n (%)"},
      {"measurement": "PD, patients", "setting": "[2]; [5]", "value": 0},
      {"measurement": "PR, patients", "setting": "[2]; [5]", "value": 5},
      {"measurement": "CR, patients", "setting": "[2]; [6]", "value": 0},
      {"measurement": "Disease Control CR+PR+SD", "setting": "[2]; [6]", "value": "4 (80.0) n (%)"},
      {"measurement": "Objective Response CR+PR", "setting": "[2]; [6]", "value": "4 (80.0) n (%)"},
      {"measurement": "PD, patients", "setting": "[2]; [6]", "value": 1},
      {"measurement": "PR, patients", "setting": "[2]; [6]", "value": 4},
      {"measurement": "median PFS", "setting": "[2]; Cohort A (apatinib 500 mg + gefitinib 250 mg)", "value": 19.2, "unit": "months"},
      {"measurement": "ORR", "setting": "[2]; Cohort A: apatinib 500 mg + gefitinib 250 mg (4/5)", "value": 80, "unit": "%"},
      {"measurement": "median PFS", "setting": "[2]; Cohort B (apatinib 250 mg + gefitinib 250 mg)", "value": 13.4, "unit": "months"},
      {"measurement": "ORR", "setting": "[2]; Cohort B: apatinib 250 mg + gefitinib 250 mg (5/6)", "value": 83.3, "unit": "%"},
      {"measurement": "CR, patients", "setting": "[2]; [7]", "value": 0},
      {"measurement": "Disease Control CR+PR+SD", "setting": "[2]; [7]", "value": "10 (90.9) n (%)"},
      {"measurement": "Objective Response CR+PR", "setting": "[2]; [7]", "value": "9 (81.8) n (%)"},
      {"measurement": "PD, patients", "setting": "[2]; [7]", "value": 1},
      {"measurement": "PR, patients", "setting": "[2]; [7]", "value": 9},
      {"measurement": "DCR", "setting": "[2]; apatinib 250 mg group + gefitinib 250 mg (6/6)", "value": 100, "unit": "%"},
      {"measurement": "DCR", "setting": "[2]; apatinib 500 mg group + gefitinib 250 mg (4/5)", "value": 80.0, "unit": "%"}
    ]}
  ]
}
